pKi: −log10 of the molar value.

The target of the assay is HPK1 (Homo sapiens (Human), UniProt Q92918). The assay is described as follows: HPK1 Kinase Binding Assay. The essentials: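 Active HPK1 (added as 4 nM solution) was combined with compound (3-fold, 11-point series) and tracer 222 (18 nM) plus Eu-anti-GST antibody (4 nM) in 50 mM HEPES pH 7.5 with MgCl2 and DTT. After 1 h at 25 °C plates were read. Ki values were derived.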
Chain of HPK1 (Q92918 1-346): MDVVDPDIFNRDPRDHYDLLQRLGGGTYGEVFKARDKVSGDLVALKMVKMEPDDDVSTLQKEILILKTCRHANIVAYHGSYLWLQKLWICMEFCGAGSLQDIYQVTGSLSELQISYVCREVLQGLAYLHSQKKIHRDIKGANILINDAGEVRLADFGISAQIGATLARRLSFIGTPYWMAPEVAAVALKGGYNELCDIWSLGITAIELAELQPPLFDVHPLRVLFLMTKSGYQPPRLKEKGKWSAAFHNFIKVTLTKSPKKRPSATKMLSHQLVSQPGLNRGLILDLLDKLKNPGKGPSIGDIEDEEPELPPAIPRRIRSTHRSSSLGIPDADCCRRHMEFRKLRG
On to `Cn1cc(-c2n[nH]c3cnc(-c4c(F)cc(NC(=O)CC5CCCC5)cc4F)cc23)cn1` [Example 66, 2-Cyclopentyl-N-(3,5-difluoro-4-(3-(1-methyl-1H-pyrazol-4-yl)-1H-pyrazolo[3,4-c]pyridin-5-yl)phenyl)acetamide], for which the pKi (in general, the Ki on a negative log10 scale, so that one unit is a factor of ten) was at least 7.00. In the case of `Cn1cc(-c2n[nH]c3cnc(-c4c(F)cc(NC(=O)Cc5cccnc5)cc4F)cc23)cn1` [Example 67, N-(3,5-Difluoro-4-(3-(1-methyl-1H-pyrazol-4-yl)-1H-pyrazolo[3,4-c]pyridin-5-yl)phenyl)-2-(pyridin-3-yl)acetamide] it was at least 7.00; in that of `Cn1cc(-c2n[nH]c3cnc(-c4c(F)cc(NC(=O)CN5C6CCC5CC6)cc4F)cc23)cn1` [Example 68, 2-(7-Azabicyclo[2.2.1]heptan-7-yl)-N-(3,5-difluoro-4-(3-(1-methyl-1H-pyrazol-4-yl)-1H-pyrazolo[3,4-c]pyridin-5-yl)phenyl)acetamide], at least 7.00; in that of `Cn1cc(-c2n[nH]c3cnc(-c4c(F)cc(NC(=O)CN5CC6(CCOCC6)C5)cc4F)cc23)cn1` [Example 69, N-(3,5-Difluoro-4-(3-(1-methyl-1H-pyrazol-4-yl)-1H-pyrazolo[3,4-c]pyridin-5-yl)phenyl)-2-(7-oxa-2-azaspiro[3.5]nonan-2-yl)acetamide], at least 7.00.

In the case of `CC(C(=O)Nc1cc(F)c(-c2cc3c(-c4cnn(C)c4)n[nH]c3cn2)c(F)c1)N1CCCC1` (stereo not drawn) [Example 70, N-(3,5-Difluoro-4-(3-(1-methyl-1H-pyrazol-4-yl)-1H-pyrazolo[3,4-c]pyridin-5-yl)phenyl)-2-(pyrrolidin-1-yl)propanamide], the pKi was at least 7.00. In the case of `COCCNC(=O)Nc1cc(F)c(-c2cc3c(-c4cnn(C)c4)n[nH]c3cn2)c(F)c1` [Example 71, 1-(3,5-Difluoro-4-(3-(1-methyl-1H-pyrazol-4-yl)-1H-pyrazolo[3,4-c]pyridin-5-yl)phenyl)-3-(2-methoxyethyl)urea] it was at least 7.00; in that of `Cn1cc(-c2n[nH]c3cnc(-c4c(F)cc(NC(=O)CN5CCC5)cc4OC(F)F)cc23)cn1` [Example 72, 2-(Azetidin-1-yl)-N-(3-(difluoromethoxy)-5-fluoro-4-(3-(1-methyl-1H-pyrazol-4-yl)-1H-pyrazolo[3,4-c]pyridin-5-yl)phenyl)acetamide], at least 7.00. In the case of `Cn1cc(-c2n[nH]c3cnc(-c4c(F)cc(NC(=O)CN5CCCC5)cc4Cl)cc23)cn1` [Example 73, N-(3-Chloro-5-fluoro-4-(3-(1-methyl-1H-pyrazol-4-yl)-1H-pyrazolo[3,4-c]pyridin-5-yl)phenyl)-2-(pyrrolidin-1-yl)acetamide] it was at least 7.00; in that of `COc1cc(NC(=O)CN2CCCC2)cc(F)c1-c1cc2c(-c3cnn(C)c3)n[nH]c2cn1` [Example 74, N-(3-Fluoro-5-methoxy-4-(3-(1-methyl-1H-pyrazol-4-yl)-1H-pyrazolo[3,4-c]pyridin-5-yl)phenyl)-2-(pyrrolidin-1-yl)acetamide], at least 7.00; in that of `COc1cc(NC(=O)CN2CC(C)(C)C2)cc(F)c1-c1cc2c(-c3cnn(C)c3)n[nH]c2cn1` [Example 75, 2-(3,3-Dimethylazetidin-1-yl)-N-(3-fluoro-5-methoxy-4-(3-(1-methyl-1H-pyrazol-4-yl)-1H-pyrazolo[3,4-c]pyridin-5-yl)phenyl)acetamide], at least 7.00. The same measure for `COc1cc(NC(=O)OC2CCN(C)CC2)cc(F)c1-c1cc2c(-c3cnn(C)c3)n[nH]c2cn1` [Example 76, 1-Methylpiperidin-4-yl 3-fluoro-5-methoxy-4-(3-(1-methyl-1H-pyrazol-4-yl)-1H-pyrazolo[3,4-c]pyridin-5-yl)phenylcarbamate]: at least 7.00; for `Cn1cc(-c2n[nH]c3cnc(-c4c(F)cc(NC(=O)CN5CCC5)c(F)c4F)cc23)cn1` [Example 77, 2-(Azetidin-1-yl)-N-(2,3,5-trifluoro-4-(3-(1-methyl-1H-pyrazol-4-yl)-1H-pyrazolo[3,4-c]pyridin-5-yl)phenyl)acetamide]: at least 7.00.

(Values after patent US10435405B2, “Pyrazolopyridine compounds and uses thereof” (Incyte Corporation, priority 2016, dated 2019).)
